Measured values taken from EP0377642B1, “HERBICIDES FOR WEED CONTROL IN RICE” (E.I. DU PONT DE NEMOURS AND COMPANY, priority 1987, dated 1989).

Tested on: Ludwigia linifolia
Assay: Herbicidal efficacy with Bensulfuron methyl and 2,4-D in Thailand (Table 19)
Format: in vivo
Conditions: 13 days after treatment
Summary of the method: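 Field trials in rice, transplanted or direct-seeded, in Southeast Asia and the U.S. Compound 1 alone or in mixtures, including with 2,4-D, hand-sprayed; the Indonesia Echinochloa trial was applied 2 weeks after transplanting.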

Measured: % CONTROL OR INJURY LL

COC(=O)c1ccccc1CS(=O)(=O)NC(=O)Nc1nc(OC)cc(OC)n1 [Bensulfuron methyl, methyl 2-[[[[[(4,6-dimethoxy-2-pyrimidinyl)amino]carbonyl]amino]sulfonyl]methyl]benzoate]
100%: 10 GAI/HA | 15 GAI/HA | 20 GAI/HA
